# Experimental data reported in patent publication US11242374B2, “Minimally-invasive and activity-dependent control of excitable cells” (Brown University, priority 2015, dated 2022).
# Key:
# [1] = tested on: neocortical neurons expressing eGLuc-Mac; test: action potential firing in cultured neocortical neurons expressing eGLuc-Mac; format: cell-based; conditions: cell expressing fusion protein containing eGLuc-Mac (hyperpolarization)
# Description: (§1) The neurons were modified to express fusion proteins including a luminescent protein (enhanced Gaussia luciferase (eGLuc)) and either VChR1 or Mac. Successful expression of the full construct in the neocortical neurons was confirmed by observation of the fluorescence of the reporter protein (upper middle panel titled Fluorescence in FIG. 3). Ability of eGLuc to luminesce was unaffected by the inclusion of light-gated ion channel (VChR1 or Mac), as shown in the upper right panel titled Luminescence in FIG. 3).
# [2] = tested on: neocortical neurons transfected with Gaussia luciferase; test: IVIS imaging of mouse brain expressing Gaussia luciferase after intravenous coelenterazine; format: in vivo; conditions: intravenous injection several weeks after transfection; right hemisphere
# Experimental: FIG. 2 is a photograph showing an example in which neocortical neurons in the right hemisphere were transfected with a Gaussia luciferase.
# Several weeks later, coelenterazine was administered intravenously to the mouse, and an image of the mouse's head was taken with IVIS® imaging system (FIG. 2).
# [3] = tested on: rat cortical neurons expressing LMO3; test: multi electrode array (MEA) recording and luminescence of cortical neurons expressing LMO3 (sbGLuc-VChR1); format: cell-based
# Description: FIGS. 12A-12D show multi electrode arrays used in the in vitro experiments on rat cortical neurons. FIG. 12A is a schematic of the multi electrode array. FIGS. 12B and 12C are images of the electrode array. FIG. 12D is a fluorescent image of MEA culture of rat cortical neurons transduced with AAV-hSyn-LMO3, where LMO3 is a fusion of sbGLuc and VChR1. Neurons are visible in fluorescent green, because of the expression of LMO3, which includes EYFP.
# FIG. 13 is a series of graphs showing the luminescence and neuronal activity of rat cortical neurons in response to contacting with coelenterazine (CTZ) or with the vehicle.
# Excitable cells (rat cortical neurons) expressing a light-gated ion channel (VChR1) fused to a luminescent protein (Gaussia luciferase) were cultured on multi electrode arrays (MEA), as shown in FIGS. 12A-12D. The results are shown in FIG. 13 Under continuous recording MEA dishes were injected (see arrows) with CTZ or with vehicle. Upon injection a pronounced artifact was observed (see FIG. 13). […] In contrast, vehicle injection causes the artifact, but neuronal spiking pattern is not altered. […] Neurons in the culture express LMO3 (luminopsins 3, a fusion of sbGLuc and VChR1). Upon application of substrate (CTZ), but not of vehicle, the luciferase emits light which activates the channelrhodopsin, resulting in changed spiking activity (see before and after CTZ). […]
# [4] = tested on: TRN and neighboring relay nuclei (eGLuc-VChR1); test: in vivo laminar electrode recording from TRN and neighboring relay nuclei after IV CTZ; set-up: species or system mice; conditions: ca. 150 μg CTZ IV (tail vein)
# Experimental: (§2) Mice were injected with AAV2/9-hSyn-eGLuc-VChR1 into the thalamus of mice, and in vitro slice experiments were performed 7-12 days later. […] VPm expression was negligible except from TRN axons. Expressing TRN neurons were electrophysiologically normal, and strongly responsive to LED light pulses (FIGS. 5B and 5C). The short latencies and other properties of these responses indicate robust VChR1 expression. Superfusion of the luciferin CTZ (100 μM) caused ca. 1-3 mV reversible depolarization (FIGS. 5D and 5E; N=3 cells, 2 mice). […] At 20 days post viral injection, a 16-contact laminar electrode was used to record from the TRN and neighboring relay nuclei under light isoflurane anesthesia (0.5%). […] Spike shape also indicated relay neuron and not TRN identity. […] These combined effects are consistent with TRN-driven hyperpolarization of this neuron and a shift to burst mode.
# [5] = tested on: neocortical neurons expressing eGLuc-VChR1; test: action potential firing in cultured neocortical neurons expressing eGLuc-VChR1; format: cell-based; conditions: cell expressing fusion protein containing eGLuc-VChR1 (depolarization)
# Description: as §1
# [6] = tested on: TRN neurons expressing eGLuc-VChR1; test: in vitro slice recordings of TRN neurons transduced with AAV2/9-hSyn-eGLuc-VChR1, CTZ superfusion; format: cell-based, mice
# Experimental: as §2
structure (smiles),measurement,setting,value
"Oc1ccc(Cc2nc3c(Cc4ccccc4)nc(-c4ccc(O)cc4)cn3c2O)cc1 [CTZ, coelenterazine]",spontaneous action potential firing,[1],suppression of spontaneous action potential firing
same,bioluminescence emission through the scalp,[2],emitted brightly
same,neuronal spiking pattern on MEA,"[3]; CTZ injected into MEA dishes, vehicle does not alter pattern",desynchronized spiking
same,luminescence of neurons,[3]; contacting with CTZ vs vehicle,results in luminescence
same,burst rate in Cell 2 (events with 100 msec prior inactivity and >95 Hz spike rate),[4],increase in burst rate
same,"firing rate in other cells (Cell 2, relay neuron)",[4],decreases in firing rate
same,firing in multi-unit activity and well-isolated single neurons (Cell 1),"[4]; putative TRN, 20 days post viral injection, isoflurane 0.5%",firing increased
same,spontaneous action potential firing,[5],increase in spontaneous action potential firing
same,onset of stimulus-evoked spike bursts,[6]; CTZ-evoked depolarization vs control,delaying onset of stimulus-evoked spike bursts
same,reversible depolarization,"[6]; superfusion of CTZ 100 μM, N=3 cells, 2 mice",1-3 mV
